# Measured values published in ChEMBL document CHEMBL1155582, “Bioactive constituents of Thuja occidentalis” (J Nat Prod, 2000).
# The source made the active and inactive calls. The calls are words filed in the database; no cut-off is given here.
# Key:
# [1] = test system: JB6; assay: (§1) Cytotoxicity against mouse JB6 cells by trypan blue exclusion test; format: functional, cell-based
# [2] = target: T1, Ornithine decarboxylase (Mus musculus) (UniProt P00860); assay: Inhibition of 12-O-tetradecanoylphorbol 13-acetate-induced ornithine decarboxylase activity in mouse ME308 cells; format: cell-based
# T1 sequence (whole entry): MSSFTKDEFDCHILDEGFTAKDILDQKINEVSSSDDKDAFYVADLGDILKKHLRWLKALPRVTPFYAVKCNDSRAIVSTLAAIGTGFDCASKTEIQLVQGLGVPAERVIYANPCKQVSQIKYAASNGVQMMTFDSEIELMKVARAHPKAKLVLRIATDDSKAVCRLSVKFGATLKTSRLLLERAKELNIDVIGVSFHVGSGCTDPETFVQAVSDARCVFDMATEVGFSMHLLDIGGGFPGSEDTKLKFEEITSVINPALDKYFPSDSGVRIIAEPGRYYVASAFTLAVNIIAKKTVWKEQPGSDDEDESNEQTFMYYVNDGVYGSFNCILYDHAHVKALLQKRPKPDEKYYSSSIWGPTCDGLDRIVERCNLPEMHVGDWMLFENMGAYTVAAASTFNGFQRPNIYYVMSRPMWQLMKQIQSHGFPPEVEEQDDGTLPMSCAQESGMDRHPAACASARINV
# [3] = Inhibition of 12-O-tetradecanoylphorbol 13-acetate-induced transformation of mouse JB6 cells after 14 days by soft agar transformation assay; format: functional
# [4] = as §1; format: functional, cell-based
# [5] = test system: KB; assay: Cytotoxicity against human KB cells; format: functional, cell-based
Structure (SMILES),Activity [2] [µM],Activity [1],Activity [3] [µM],IC50 [4] [µM],IC50 [5] [µM]
COc1cc(C[C@H]2C(=O)OC[C@@H]2Cc2ccc3c(c2)OCO3)cc(OC)c1OC,6.5,Active,3.75,–,–
COc1cc([C@H]2c3cc4c(cc3C[C@H]3COC(=O)[C@H]32)OCO4)cc(OC)c1OC [ISOPICRODEOXYPODOPHYLLOTOXIN],0.55,Active,0.18,–,–
C=C[C@@]1(C)CC[C@H]2C(=CC[C@@H]3[C@]2(C)CCC[C@@]3(C)C(=O)O)C1 [ISOPIMARIC ACID],0.86,–,13.2,> 60,> 60
COc1cc([C@@H]2c3cc4c(cc3C[C@H]3COC(=O)[C@@H]32)OCO4)cc(OC)c1OC [DESOXYPODOPHYLLOTOXIN],< 0.08,Active,0.004,–,–
C=C[C@]1(C)C=C2C(=O)C[C@@H]3[C@](C)(CCC[C@@]3(C)C(=O)O)[C@H]2CC1,0.5,–,11.7,> 60,> 60

# Now from value to compound, other results behind:
Activity [2] [µM],Structure (SMILES),Activity [1],Activity [3] [µM],IC50 [4] [µM],IC50 [5] [µM]
0.98,C=C[C@@]1(C)CCC2=C(C1)C(=O)C[C@H]1[C@](C)(C(=O)O)CCC[C@]21C,–,12.6,> 60,> 60
0.6,CC1=C(/C=C/C(C)=C/C=C/C(C)=C\C(=O)O)C(C)(C)CCC1 [ISOTRETINOIN],–,0.021,–,–
